According to publication PMC9036627, “Global update on the susceptibility of human influenza viruses to neuraminidase inhibitors, 2013–2014” (Antiviral research, 2015):

Legend:
[1] = test system: neuraminidase (NA) of A(H1N1)pdm09 viruses; format: biochemical, influenza A(H1N1)pdm09 virus
[2] = test system: neuraminidase (NA) of B/Victoria-lineage viruses; format: biochemical, influenza B/Victoria-lineage virus
[3] = test system: neuraminidase (NA) of B/Yamagata-lineage viruses; format: biochemical, influenza B/Yamagata-lineage virus
[4] = test system: former seasonal A(H1N1) H275Y virus; details: ref Kawai et al., 2009, Dharan et al., 2010, Matsuzaki et al., Saito et al.; cited from earlier work
[5] = test system: former seasonal A(H1N1) H275Y virus; details: ref Kawai et al., 2009, Dharan et al., 2010, Matsuzaki et al., Saito et al.; cited from earlier work; remark: listed apart in the source

Row | SMILES | Included in phenotypic analysis: inhibition category (HRI/RI/NI) [1] | effect of NA substitution on susceptibility [1] | inhibition category (HRI/RI/NI) [2] | effect of NA substitution on susceptibility [3] | inhibition category (HRI/RI/NI) [3] | inhibition category in vitro [4] | clinical resistance [5]
1 | [H]/N=C(\N)N[C@H]1C=C(C(=O)O)O[C@@H]([C@H](OC)[C@H](O)CO)[C@@H]1NC(C)=O [Laninamivir, laninamivir] | RI (key: NI < 10-fold; RI 10 to 100-fold; HRI > 100-fold) | little or no effect | HRI (key: NI < 5-fold; RI 5 to 50-fold; HRI > 50-fold) | no effect | – | – | –
2 | CCOC(=O)C1=C[C@@H](OC(CC)CC)[C@H](NC(C)=O)[C@@H](N)C1 [Oseltamivir, oseltamivir] | – | – | RI (key: NI < 5-fold; RI 5 to 50-fold; HRI > 50-fold) | – | RI (key: NI < 5-fold; RI 5 to 50-fold; HRI > 50-fold) | HRI (HRI > 100-fold) | clinically resistant
3 | CCC(CC)[C@H](NC(C)=O)[C@@H]1[C@H](O)[C@@H](C(=O)O)C[C@H]1N=C(N)N [Peramivir, peramivir] | – | – | HRI (key: NI < 5-fold; RI 5 to 50-fold; HRI > 50-fold) | – | – | HRI (HRI > 100-fold) | –
4 | CC(=O)N[C@H]1[C@H]([C@H](O)[C@H](O)CO)OC(C(=O)O)=C[C@@H]1N=C(N)N [Zanamivir, zanamivir] | – | little or no effect | HRI (key: NI < 5-fold; RI 5 to 50-fold; HRI > 50-fold) | no effect | – | – | –
